Reference: patent US11866720B2, “Transgenic or non-transgenic plants with mutated protoporphyrinogen oxidase having increased tolerance to herbicides” (priority 2013, dated 2024)
Where two headings read alike, the source gives them in different places.

What was measured:
[1] = test system: transgenic soybean expressing mutated PPO; test: Soybean T0 cuttings, greenhouse spray test (injury score 0-9, 1 week after treatment); format: in vivo, Glycine max; conditions: for Injury score from 0-9: soybean T0 cuttings, 1 week after treatment
From the text: For testing of T0 plants, cuttings can be used. In the case of soybean plants, an optimal shoot for cutting is about 7.5 to 10 cm tall, with at least two nodes present. Each cutting is taken from the original transformant (mother plant) and dipped into rooting hormone powder (indole-3-butyric acid, IBA). The cutting is then placed in oasis wedges inside a bio-dome. Wild type cuttings are also taken simultaneously to serve as controls. The cuttings are kept in the bio-dome for 5-7 days and then transplanted to pots and then acclimated in the growth chamber for two more days. Subsequently, the cuttings are transferred to the greenhouse, acclimated for approximately 4 days, and then subjected to spray tests as indicated. Depending on the species, the plants are kept at 10-25° C. or 20-35° C. The test period extends over 3 weeks. During this time, the plants are tended and their response to the individual treatments is evaluated. Herbicide injury evaluations are taken at 2 and 3 weeks after treatment. Plant injury is rated on a scale of 0% to 100%, 0% being no injury and 100% being complete death.
Soybean cv Jake was transformed as previously described by Siminszky et al., Phytochem Rev. 5:445-458 (2006). After regeneration, transformants were transplanted to soil in small pots, placed in growth chambers (16 hr day/8 hr night; 25° C. day/23° C. night; 65% relative humidity; 130-150 microE m-2 s-1) and subsequently tested for the presence of the T-DNA via Taqman analysis. After a few weeks, healthy, transgenic positive, single copy events were transplanted to larger pots and allowed to grow in the growth chamber. An optimal shoot for cutting was about 3-4 inches tall, with at least two nodes present. Each cutting was taken from the original transformant (mother plant) and dipped into rooting hormone powder (indole-3-butyric acid, IBA). The cutting was then placed in oasis wedges inside a bio-dome. The mother plant was taken to maturity in the greenhouse and harvested for seed. Wild type cuttings were also taken simultaneously to serve as negative controls. The cuttings were kept in the bio-dome for 5-7 days and then transplanted to 3 inch pots and then acclimated in the growth chamber for two more days. […] Herbicide injury evaluations were taken at 2, 7, 14 and 21 days after treatment. Results are shown in Tables 11a-11i, and FIGS. 5, 6, and 7.
The following gives a definition of the injury scores measured above: […]

[2] = test system: transgenic soybean expressing mutated PPO; format: in vivo, Glycine max; conditions: T1 soybean, field; for injury (1-5 point scale): SDS-10648 AmtuPPX2L R128A_F420I; for injury (1-5 point scale): key: 1: no obvious damage (no phytotoxicity); 2: minor amount of leaf damage, plant will survive; 3: moderate amount of leaf damage, plant will survive; 4: severe amount of leaf damage, plant will survive; 5: no surviving plants - all plants dead/dying

CC(C)N(C)S(=O)(=O)NC(=O)c1cc(-n2c(=O)cc(C(F)(F)F)n(C)c2=O)c(F)cc1Cl [Saflufenacil, saflufenacil]
injury score 1 WAT ([1]; Soy T0 AmtuPPX2L_R128L_F420V event 1, greenhouse, 100 g ai/ha): 4 | injury score 1 WAT ([1]; Soy T0 AmtuPPX2L_R128L_F420V event 1, greenhouse, 200 g ai/ha): 6 | injury score 1 WAT ([1]; Soy T0 AmtuPPX2L_R128L_F420V event 2, greenhouse, 100 g ai/ha): 1 | injury score 1 WAT ([1]; Soy T0 AmtuPPX2L_R128L_F420V event 2, greenhouse, 200 g ai/ha): 2 | Injury score from 0-9 ([1]; AmtuPPX2L (10 events), Kixor 12.5 + 1% MSO): 2 | Injury score from 0-9 ([1]; AmtuPPX2L (10 events), Kixor 25 + 1% MSO): 4 | Injury score from 0-9 ([1]; AmtuPPX2L (10 events), Kixor 50 + 1% MSO): 7 | Injury score from 0-9 ([1]; AmtuPPX2L_F420L (7 events), Kixor 12.5 + 1% MSO): 1 | Injury score from 0-9 ([1]; AmtuPPX2L_F420L (7 events), Kixor 25 + 1% MSO): 0 | Injury score from 0-9 ([1]; AmtuPPX2L_F420L (7 events), Kixor 50 + 1% MSO): 0 | Injury score from 0-9 ([1]; AmtuPPX2L_F420M (8 events), Kixor 25 + 1% MSO): 0 | Injury score from 0-9 ([1]; AmtuPPX2L_F420M (8 events), Kixor 50 + 1% MSO): 3 | Injury score from 0-9 ([1]; AmtuPPX2L_F420M (8 events), Kixor 100 + 1% MSO): 3 | Injury score from 0-9 ([1]; AmtuPPX2L_R128A_F420I (9 events), Kixor 200 + 1% MSO): 1 | Injury score from 0-9 ([1]; AmtuPPX2L_R128A_F420L (6 events), Kixor 25 + 1% MSO): 0 | Injury score from 0-9 ([1]; AmtuPPX2L_R128A_F420L (6 events), Kixor 50 + 1% MSO): 1 | Injury score from 0-9 ([1]; AmtuPPX2L_R128A_F420L (6 events), Kixor 100 + 1% MSO): 1 | Injury score from 0-9 ([1]; AmtuPPX2L_R128A_F420M (7 events), Kixor 100 + 1% MSO): 2 | Injury score from 0-9 ([1]; AmtuPPX2L_R128A_F420M (7 events), Kixor 200 + 1% MSO): 2 | Injury score from 0-9 ([1]; AmtuPPX2L_R128A_F420V (14 events), Kixor 100 + 1% MSO): 2 | Injury score from 0-9 ([1]; AmtuPPX2L_R128A_F420V (14 events), Kixor 200 + 1% MSO): 2 | Injury score from 0-9 ([1]; AmtuPPX2L_dG210 (13 events), Kixor 25 + 1% MSO): 1 | Injury score from 0-9 ([1]; AmtuPPX2L_dG210 (13 events), Kixor 50 + 1% MSO): 2 | Injury score from 0-9 ([1]; AmtuPPX2L_dG210 (13 events), Kixor 100 + 1% MSO): 1 | Injury score from 0-9 ([1]; AmtuPPX2L_dG210_R128L (12 events), Kixor 25 + 1% MSO): 0 | Injury score from 0-9 ([1]; AmtuPPX2L_dG210_R128L (12 events), Kixor 50 + 1% MSO): 1 | Injury score from 0-9 ([1]; AmtuPPX2L_dG210_R128L (12 events), Kixor 100 + 1% MSO): 1 | Injury score from 0-9 ([1]; NitabPPX2 (13 events), Kixor 12.5 + 1% MSO): 3 | Injury score from 0-9 ([1]; NitabPPX2 (13 events), Kixor 25 + 1% MSO): 6 | Injury score from 0-9 ([1]; NitabPPX2 (13 events), Kixor 50 + 1% MSO): 9 | Injury score from 0-9 ([1]; NitabPPX2_R98A_F392V (9 events), Kixor 50 + 1% MSO): 0 | Injury score from 0-9 ([1]; NitabPPX2_R98A_F392V (9 events), Kixor 100 + 1% MSO): 2 | Injury score from 0-9 ([1]; NitabPPX2_R98A_F392V (9 events), Kixor 200 + 1% MSO): 2 | Injury score from 0-9 ([1]; wild type Jake variety, Kixor 12.5 + 1% MSO): 9 | Injury score from 0-9 ([1]; wild type Jake variety, Kixor 25 + 1% MSO): 9 | Injury score from 0-9 ([1]; wild type Jake variety, Kixor 50 + 1% MSO): 9 | Injury score from 0-9 ([1]; wild type Jake variety, Kixor 100 + 1% MSO): 9 | Injury score from 0-9 ([1]; wild type Jake variety, Kixor 200 + 1% MSO): 9 | Injury rating (1-5 point scale) ([2]; AmtuPPX2L_R128A_F420V (event 10), saflufenacil: treatment 1 150 g ai/ha, treatment 2 0, 7 DAT): 3 | Injury rating (1-5 point scale) ([2]; AmtuPPX2L_R128A_F420V (event 10), saflufenacil: treatment 1 300 g ai/ha, treatment 2 300 g ai/ha, 14 DAT): 3 | Injury rating (1-5 point scale) ([2]; SDS-10533 LTM382-2 AmtuPPX2L_F420L, Saflufenacil (75 gai/ha), 3 days after treatment): 2.5 | Injury rating (1-5 point scale) ([2]; SDS-10533 LTM382-2 AmtuPPX2L_F420L, Saflufenacil (150 gai/ha), 3 days after treatment): 2.5 | Injury rating (1-5 point scale) ([2]; SDS-10544 LTM382-2 AmtuPPX2L_F420L, Saflufenacil (75 gai/ha), 3 days after treatment): 2.5 | Injury rating (1-5 point scale) ([2]; SDS-10544 LTM382-2 AmtuPPX2L_F420L, Saflufenacil (150 gai/ha), 3 days after treatment): 2.5 | Injury rating (1-5 point scale) ([2]; SDS-10558 LTM382-2 AmtuPPX2L_F420L, Saflufenacil (75 gai/ha), 3 days after treatment): 2.5 | Injury rating (1-5 point scale) ([2]; SDS-10558 LTM382-2 AmtuPPX2L_F420L, Saflufenacil (150 gai/ha), 3 days after treatment): 2 | Injury rating (1-5 point scale) ([2]; SDS-10562 LTM377-1 AmtuPPX2L_dG210, Saflufenacil (75 gai/ha), 3 days after treatment): 4 | Injury rating (1-5 point scale) ([2]; SDS-10562 LTM377-1 AmtuPPX2L_dG210, Saflufenacil (150 gai/ha), 3 days after treatment): 4 | Injury rating (1-5 point scale) ([2]; SDS-10566 LTM377-1 AmtuPPX2L_dG210, Saflufenacil (75 gai/ha), 3 days after treatment): 4 | Injury rating (1-5 point scale) ([2]; SDS-10566 LTM377-1 AmtuPPX2L_dG210, Saflufenacil (150 gai/ha), 3 days after treatment): 4 | Injury rating (1-5 point scale) ([2]; SDS-10633 LTM383-1 AmtuPPX2L_F420M, Saflufenacil (75 gai/ha), 3 days after treatment): 3 | Injury rating (1-5 point scale) ([2]; SDS-10633 LTM383-1 AmtuPPX2L_F420M, Saflufenacil (150 gai/ha), 3 days after treatment): 3 | Injury rating (1-5 point scale) ([2]; SDS-10635 LTM383-1 AmtuPPX2L_F420M, Saflufenacil (75 gai/ha), 3 days after treatment): 3.5 | Injury rating (1-5 point scale) ([2]; SDS-10635 LTM383-1 AmtuPPX2L_F420M, Saflufenacil (150 gai/ha), 3 days after treatment): 3.5 | Injury rating (1-5 point scale) ([2]; SDS-10642 LTM384-1 AmtuPPX2L_R128A_F420L, Saflufenacil (75 gai/ha), 3 days after treatment): 2 | Injury rating (1-5 point scale) ([2]; SDS-10642 LTM384-1 AmtuPPX2L_R128A_F420L, Saflufenacil (150 gai/ha), 3 days after treatment): 2 | Injury rating (1-5 point scale) ([2]; SDS-10645 LTM383-1 AmtuPPX2L_F420M, Saflufenacil (75 gai/ha), 3 days after treatment): 4 | Injury rating (1-5 point scale) ([2]; SDS-10645 LTM383-1 AmtuPPX2L_F420M, Saflufenacil (150 gai/ha), 3 days after treatment): 3 | Injury rating (1-5 point scale) ([2]; SDS-10646 LTM383-1 AmtuPPX2L_F420M, Saflufenacil (75 gai/ha), 3 days after treatment): 2.5 | Injury rating (1-5 point scale) ([2]; SDS-10646 LTM383-1 AmtuPPX2L_F420M, Saflufenacil (150 gai/ha), 3 days after treatment): 2.5 | injury (1-5 point scale) ([2]; Saflufenacil 75 g ai/ha, 3 days after treatment): 2 | injury (1-5 point scale) ([2]; Saflufenacil 150 g ai/ha, 3 days after treatment): 2 | Injury rating (1-5 point scale) ([2]; SDS-10648 LTM386-1 AmtuPPX2L_R128A_F420I, Saflufenacil (75 gai/ha), 3 days after treatment): 3 | Injury rating (1-5 point scale) ([2]; SDS-10648 LTM386-1 AmtuPPX2L_R128A_F420I, Saflufenacil (150 gai/ha), 3 days after treatment): 3 | Injury rating (1-5 point scale) ([2]; SDS-10656 LTM377-1 AmtuPPX2L_dG210, Saflufenacil (75 gai/ha), 3 days after treatment): 3.5 | Injury rating (1-5 point scale) ([2]; SDS-10656 LTM377-1 AmtuPPX2L_dG210, Saflufenacil (150 gai/ha), 3 days after treatment): 3.5 | Injury rating (1-5 point scale) ([2]; SDS-10658 LTM386-1 AmtuPPX2L_R128A_F420I, Saflufenacil (75 gai/ha), 3 days after treatment): 3.5 | Injury rating (1-5 point scale) ([2]; SDS-10658 LTM386-1 AmtuPPX2L_R128A_F420I, Saflufenacil (150 gai/ha), 3 days after treatment): 3.5 | Injury rating (1-5 point scale) ([2]; SDS-10761 LTM383-1 AmtuPPX2L_F420M, Saflufenacil (75 gai/ha), 3 days after treatment): 3
